Data as given in BigSolDB 2.1.

CC(C)(N)C(=O)O
solubility (mole fraction)
Conditions | 283.15 K | 288.15 K | 293.15 K | 298.15 K | 303.15 K | 308.15 K | 313.15 K | 318.15 K | 323.15 K
in 2-butanone | 0.000215 | 0.000258 | 0.000319 | 0.000415 | 0.000507 | 0.000599 | 0.00068 | 0.000803 | 0.000946
in DMF | 5.8e-05 | 0.00019 | 0.000365 | 0.00067 | 0.00102 | 0.00163 | 0.00245 | 0.00356 | 0.00462
in acetone | 6e-05 | 9.7e-05 | 0.00016 | 0.000211 | 0.000253 | 0.000319 | 0.000386 | 0.000442 | 0.000501
in acetonitrile | 0.000123 | 0.00014 | 0.000163 | 0.000189 | 0.000218 | 0.00024 | 0.000277 | 0.000317 | 0.000366
in ethanol | 0.000102 | 0.000183 | 0.000277 | 0.000376 | 0.000479 | 0.000579 | 0.000669 | 0.000763 | 0.000879
in ethyl acetate | 0.000164 | 0.000246 | 0.000353 | 0.000507 | 0.000635 | 0.000808 | 0.000949 | 0.00111 | 0.00137
in isopropanol | 0.000157 | 0.000176 | 0.000198 | 0.000227 | 0.000275 | 0.000336 | 0.000396 | 0.000466 | 0.000576
in methanol | 0.000625 | 0.000658 | 0.000715 | 0.000792 | 0.000878 | 0.000947 | 0.00106 | 0.00117 | 0.0013
in methyl acetate | 6.8e-05 | 0.000102 | 0.00013 | 0.000168 | 0.00021 | 0.000248 | 0.000306 | 0.000364 | 0.000436
in n-butanol | 0.000158 | 0.000219 | 0.00027 | 0.000334 | 0.00043 | 0.000518 | 0.00065 | 0.000783 | 0.000963
in n-pentanol | 0.0002 | 0.000248 | 0.000302 | 0.000369 | 0.000448 | 0.000523 | 0.000616 | 0.000721 | 0.000843
in n-propanol | 0.00015 | 0.000207 | 0.000302 | 0.000388 | 0.000466 | 0.000553 | 0.000659 | 0.000774 | 0.000945
in water | 0.0256 | 0.0259 | 0.0261 | 0.0266 | 0.0269 | 0.0273 | 0.0276 | 0.0282 | 0.0291
